Where two headings read alike, the source gives them in different places.
Assays:
[1] = biological target: bovine heart mitochondrial membranes (complex I) (Bos taurus, UniProt P03887+P03898+P17694+P42026); assay: NADH:O2 oxidoreduction by bovine heart mitochondrial membranes (complexes I-III-IV); type: biochemical
Protocol: Complex I and mitochondrial membranes were prepared from Bos taurus (bovine) heart. Intact mitochondria were isolated from rat liver and mouse heart and liver. Membranes were prepared from mouse heart mitochondria by 5 s bursts of sonication at 4 °C and collected by centrifugation (75,000 × g, 1 h).
Assays were performed at 32 °C in a SpectraMax 96-well plate reader. NADH:decylubiquinone oxidoreduction by complex I at 0.5 μg mL^−1 was measured in 20 mM Tris-HCl (pH 7.2), 0.15 % soy bean asolectin (Avanti Polar Lipids), and 0.15 % 3-((3-cholamidopropyl)dimethylammonium)-1-propanesulfonate (CHAPS, Merck Chemicals Ltd), with 200 μM decylubiquinone and 200 μM NADH, and monitored using ε340–380(NADH) = 4.81 mM^−1 cm^−1 [23]. Catalysis was initiated by addition of NADH and maximal rates determined by linear regression. NADH:O2 oxidoreduction by membranes was measured similarly but using 5 μg mL^−1 membranes in 10 mM Tris-HCl (pH 7.4) and 250 mM sucrose using 200 μM NADH and supplemented with 0.15 mM horse heart cytochrome c (Sigma-Aldrich Ltd.). Succinate:O2 oxidoreduction was measured using 40 μg mL^−1 membranes in 5 mM succinate in 10 mM Tris-HCl (pH 7.4) as described previously. Control experiments included NaCl (to match the ionic strength) or DMSO, as appropriate.
Experimental values are reported as mean averages ± standard deviation (SD) of technical replicates for large sample sizes and mean averages ± standard error of the mean (SEM) of technical replicates for small sample sizes. Data were analyzed by the unpaired two-tailed Student’s t test. IC50 values were determined using the standard dose-effect relationship (activity (%) = 100 × IC50 / (IC50 + [inhibitor]^m) with the Hill Slope (m) set to unity for purified complex I) and are reported with 95 % confidence intervals.

HepG2 cells = assay: Rotenone-sensitive oxygen consumption rate in intact HepG2 cells; type: cell-based, human; details: for rotenone sensitive OCR after 6 hours of biguanide exposure, % control, average / rotenone sensitive OCR after 6 hours of biguanide exposure, average: HEPG2 cells, biguanide at IC50/10; for rotenone sensitive OCR after 6 hours of biguanide exposure, average: OCR normalized to OCR immediately prior to biguanide addition; for inhibition of rotenone-sensitive respiration (in words): intact HepG2 cells, biguanide at IC50/10, monitored for 6 h
Protocol: 143B (CRL-8303 from ATCC), HepG2 (85011430 from The Health Protection Agency), and MDBK (CCL-22 from ATCC) cells were grown on Dulbecco’s modified Eagle’s medium (DMEM) supplemented with 10 % fetal bovine serum (FBS, Thermo Fisher Scientific) at 37 °C in 5 % CO2. All cells were confirmed as negative for mycoplasma.
Oxygen consumption rates (OCRs) were measured using a Seahorse XF96 extracellular flux analyzer at 37 °C. For intact cell measurements, 1.4 × 10^4 143B, HepG2, or MDBK cells were plated (per well) in DMEM containing 10 % FBS into Seahorse Bioscience Inc. XF96 plates and incubated for ~12 h at 37 °C in 5 % CO2. Then, the medium was exchanged for assay buffer containing DMEM, 4.5 g L^−1 glucose, 1 mM pyruvate, 32 mM NaCl, 2 mM GlutaMAX, 15 mg L^−1 phenol red, and 20 mM HEPES (pH 7.4 at 37 °C) and the cells placed in a CO2-free incubator at 37 °C for 30 min. Basal oxygen consumption rates were established before the addition of biguanides at one-tenth of their IC50 (IC50/10), and followed for ~ 6 h before the addition of rotenone (2 μM).
Rotenone-sensitive OCRs were calculated by subtracting the rotenone-insensitive rates (determined at the end of the experiment). OCRs were normalized by dividing by the OCR recorded immediately prior to the addition of biguanide. For rate of uptake calculations, the OCRs at time points after biguanide addition were divided by the OCRs at the same time points in control experiments. Data from wells with failed port injections were excluded from the analyses. The respiratory control ratio (RCR) values (state III versus state IV respiration) were ~11 and ~6 for permeabilized MDBK and 143B cells, respectively.

AMPK-α (phospho-Thr172) = assay: AMPK activation, western blot of phospho-AMPK-α in MDBK cells; type: cell-based, Bos taurus; details: for p-alpha, average normalised to control: Averages of experiments 1-3, 18 hours; for p-alpha: band intensity
Protocol: MDBK cells were seeded at 1 × 10^6 cells per 6 cm dish in DMEM containing 10 % FBS. […] After 18 h cells were harvested by a rapid lysis procedure: cells were rinsed with PBS, then lysed using ice-cold buffer containing 50 mM HEPES, 1 mM EDTA, 10 % glycerol, 50 mM NaF, 5 mM sodium pyrophosphate, 1 % Triton-X100, 1 mM dithiothreitol (DTT), and a protease inhibitor cocktail (Roche). The cell lysate was centrifuged at 14,000 × g for 20 min at 4 °C and the protein concentration of the supernatant determined by bicinchoninic acid assay. The lysate was analyzed using Novex 3–12 % bis-Tris gels run in 3-(N-morpholino)propanesulfonic acid (MOPS) buffer (20 μg of protein per lane) followed by transfer to low fluorescence polyvinylidene fluoride membranes by wet transfer. Primary rabbit antibodies for AMPK-β (57C12), AMPK-α (phospho-Thr172) (40H9), and acetyl-coA carboxylase (phospho-Ser79) (Cell Signaling Technology) were incubated overnight with the membrane (1:1000 dilution) in Odyssey blocking buffer at 4 °C. A fluorescent secondary antibody was used (IRDYE800CW from LI-COR Biosciences, 1:20,000 dilution) with a LI-COR Odyssey imaging system.

[2] = bovine heart mitochondrial membranes; inhibitor 0.025 mM; read-out: average % (rate, % of no-inhibitor control)
[3] = bovine heart mitochondrial membranes; inhibitor 0.05 mM; read-out: average % (rate, % of no-inhibitor control)
[4] = bovine heart mitochondrial membranes; inhibitor 0.12 mM; read-out: average % (rate, % of no-inhibitor control)
[5] = bovine heart mitochondrial membranes; inhibitor 0.25 mM; read-out: average % (rate, % of no-inhibitor control)
[6] = bovine heart mitochondrial membranes; inhibitor 0.50 mM; read-out: average % (rate, % of no-inhibitor control)
[7] = bovine heart mitochondrial membranes; inhibitor 1.00 mM; read-out: average % (rate, % of no-inhibitor control)
[8] = bovine heart mitochondrial membranes; inhibitor 2.00 mM; read-out: average % (rate, % of no-inhibitor control)
[9] = log of concentration in mM; sample given as Bovine heart mitochondrial membranes; Prism variable slope fit, Bottom 0, Top 100
[10] = sample given as Bovine heart mitochondrial membranes; Prism log(inhibitor) vs. response variable slope fit (four parameters), Bottom 0, Top 100; read-out: IC50 (best fit value)
[11] = sample given as Bovine heart mitochondrial membranes; Prism variable slope fit, Bottom 0, Top 100

Sequence of bovine heart mitochondrial membranes (complex I) (P42026 38-216): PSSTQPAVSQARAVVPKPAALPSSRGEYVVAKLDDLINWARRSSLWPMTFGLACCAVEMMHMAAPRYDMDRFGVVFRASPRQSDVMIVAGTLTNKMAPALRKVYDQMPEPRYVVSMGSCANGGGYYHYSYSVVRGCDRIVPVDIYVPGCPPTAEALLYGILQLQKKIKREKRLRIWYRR
Sequence of bovine heart mitochondrial membranes (complex I) (P17694 34-463): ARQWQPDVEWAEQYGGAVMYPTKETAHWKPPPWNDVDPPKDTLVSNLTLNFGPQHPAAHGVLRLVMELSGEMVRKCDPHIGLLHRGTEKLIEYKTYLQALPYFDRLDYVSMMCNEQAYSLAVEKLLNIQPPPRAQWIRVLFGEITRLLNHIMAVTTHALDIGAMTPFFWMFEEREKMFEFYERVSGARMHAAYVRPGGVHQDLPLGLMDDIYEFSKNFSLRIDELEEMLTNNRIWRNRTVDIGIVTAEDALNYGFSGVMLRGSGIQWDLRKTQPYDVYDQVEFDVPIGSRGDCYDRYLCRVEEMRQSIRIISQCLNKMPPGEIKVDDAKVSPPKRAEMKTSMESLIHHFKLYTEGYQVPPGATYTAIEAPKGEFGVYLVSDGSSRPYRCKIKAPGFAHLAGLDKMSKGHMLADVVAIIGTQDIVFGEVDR
Sequence of bovine heart mitochondrial membranes (complex I) (P03887 whole entry): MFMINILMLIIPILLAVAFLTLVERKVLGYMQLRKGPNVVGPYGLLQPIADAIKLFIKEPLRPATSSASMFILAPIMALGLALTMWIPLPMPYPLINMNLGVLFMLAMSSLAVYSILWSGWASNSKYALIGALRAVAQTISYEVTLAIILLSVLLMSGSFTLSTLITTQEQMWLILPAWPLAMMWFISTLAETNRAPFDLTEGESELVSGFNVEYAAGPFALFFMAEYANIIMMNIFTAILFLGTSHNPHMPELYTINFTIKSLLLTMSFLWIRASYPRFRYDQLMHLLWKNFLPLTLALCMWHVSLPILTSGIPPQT
Sequence of bovine heart mitochondrial membranes (complex I) (P03898 whole entry): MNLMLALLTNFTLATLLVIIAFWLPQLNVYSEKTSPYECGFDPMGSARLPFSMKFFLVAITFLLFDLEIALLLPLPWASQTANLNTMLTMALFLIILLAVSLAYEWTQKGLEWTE

CC(C)N=C(N)N=C(N)NC(C)C [compound 5, N-(propan-2-yl)-1-3-(propan-2-yl)carbamimidamidomethanimidamide]
remaining activity at 25 µM [1, 2]: 88.2%
remaining activity at 50 µM [1, 3]: 80.7%
remaining activity at 120 µM [1, 4]: 67.1%
remaining activity at 250 µM [1, 5]: 53.5%
remaining activity at 500 µM [1, 6]: 42.4%
remaining activity at 1000 µM [1, 7]: 30.7%
remaining activity at 2000 µM [1, 8]: 19.2%
LogIC50 (best fit value) [1, 9]: -0.4916
IC50 [1, 10]: 322 µM
HillSlope (best fit value) [1, 11]: -0.7631
rotenone sensitive OCR after 6 hours of biguanide exposure, % control, average (HepG2 cells): 88.37 % control
rotenone sensitive OCR after 6 hours of biguanide exposure, average (HepG2 cells): 91.14
inhibition of rotenone-sensitive respiration (in words) (HepG2 cells): do not
p-alpha, average normalised to control (AMPK-α (phospho-Thr172)): 1.21
p-alpha / AMPK beta (AMPK-α (phospho-Thr172); Experiment 1, 18 hours): 0.13
p-alpha / AMPK beta normalised to control (AMPK-α (phospho-Thr172); Experiment 1, 18 hours): 1.05
p-alpha (AMPK-α (phospho-Thr172); Experiment 1, 18 hours): 62.5
p-alpha / AMPK beta (AMPK-α (phospho-Thr172); Experiment 2, 18 hours): 0.17
p-alpha / AMPK beta normalised to control (AMPK-α (phospho-Thr172); Experiment 2, 18 hours): 1.19
p-alpha (AMPK-α (phospho-Thr172); Experiment 2, 18 hours): 52.5
p-alpha / AMPK beta (AMPK-α (phospho-Thr172); Experiment 3, 18 hours): 0.29
p-alpha / AMPK beta normalised to control (AMPK-α (phospho-Thr172); Experiment 3, 18 hours): 1.38
p-alpha (AMPK-α (phospho-Thr172); Experiment 3, 18 hours): 51.1

N=C(N)NC(N)=Nc1ccccc1 [compound 2, phenyl biguanide]
LogIC50 (best fit value) [1, 9]: -0.3757
IC50 ([1]; read-out: IC50 (best fit value); sample given as Bovine heart mitochondrial membranes; Prism log(inhibitor) vs. response variable slope fit (four parameters), Bottom 0, Top 100): 421 µM
HillSlope (best fit value) [1, 11]: -0.7595
rotenone sensitive OCR after 6 hours of biguanide exposure, % control, average (HepG2 cells): 91.28 % control
rotenone sensitive OCR after 6 hours of biguanide exposure, average (HepG2 cells): 94.14
inhibition of rotenone-sensitive respiration (in words) (HepG2 cells): do not
p-alpha, average normalised to control (AMPK-α (phospho-Thr172)): 1.18
p-alpha / AMPK beta (AMPK-α (phospho-Thr172); Experiment 1, 18 hours): 0.14
p-alpha / AMPK beta normalised to control (AMPK-α (phospho-Thr172); Experiment 1, 18 hours): 1.11
p-alpha (AMPK-α (phospho-Thr172); Experiment 1, 18 hours): 64.6
p-alpha / AMPK beta (AMPK-α (phospho-Thr172); Experiment 2, 18 hours): 0.17
p-alpha / AMPK beta normalised to control (AMPK-α (phospho-Thr172); Experiment 2, 18 hours): 1.14
p-alpha (AMPK-α (phospho-Thr172); Experiment 2, 18 hours): 57.4
p-alpha / AMPK beta (AMPK-α (phospho-Thr172); Experiment 3, 18 hours): 0.27
p-alpha / AMPK beta normalised to control (AMPK-α (phospho-Thr172); Experiment 3, 18 hours): 1.28
p-alpha (AMPK-α (phospho-Thr172); Experiment 3, 18 hours): 57.3

NC(N)=NC(N)=NCCc1ccc(Cl)cc1 [compound 1, 2-[2-(4-chlorophenyl)ethyl]-1-(diaminomethylidene)guanidine]
remaining activity at 25 µM [1, 2]: 91.4%
remaining activity at 50 µM [1, 3]: 77.5%
remaining activity at 120 µM [1, 4]: 66.8%
remaining activity at 250 µM [1, 5]: 57.4%
remaining activity at 500 µM [1, 6]: 44.1%
remaining activity at 1000 µM [1, 7]: 35.1%
remaining activity at 2000 µM [1, 8]: 28.9%
LogIC50 (best fit value) [1, 9]: -0.4001
IC50 [1, 10]: 398 µM
HillSlope (best fit value) [1, 11]: -0.6555
rotenone sensitive OCR after 6 hours of biguanide exposure, % control, average (HepG2 cells): 4.45 % control
rotenone sensitive OCR after 6 hours of biguanide exposure, average (HepG2 cells): 4.59
inhibition of rotenone-sensitive respiration (in words) (HepG2 cells): inhibit respiration
AMPK activation (in words) (AMPK-α (phospho-Thr172); 18-h treatment, IC50/10 biguanide concentrations): slightly lower activation
p-alpha, average normalised to control (AMPK-α (phospho-Thr172)): 5.54
p-alpha / AMPK beta (AMPK-α (phospho-Thr172); Experiment 1, 18 hours): 0.63
p-alpha / AMPK beta normalised to control (AMPK-α (phospho-Thr172); Experiment 1, 18 hours): 5.05
p-alpha (AMPK-α (phospho-Thr172); Experiment 1, 18 hours): 288
p-alpha / AMPK beta (AMPK-α (phospho-Thr172); Experiment 2, 18 hours): 1.08
p-alpha / AMPK beta normalised to control (AMPK-α (phospho-Thr172); Experiment 2, 18 hours): 7.41
p-alpha (AMPK-α (phospho-Thr172); Experiment 2, 18 hours): 388
p-alpha / AMPK beta (AMPK-α (phospho-Thr172); Experiment 3, 18 hours): 0.86
p-alpha / AMPK beta normalised to control (AMPK-α (phospho-Thr172); Experiment 3, 18 hours): 4.15
p-alpha (AMPK-α (phospho-Thr172); Experiment 3, 18 hours): 220

Source: publication PMC4977651, “Molecular features of biguanides required for targeting of mitochondrial respiratory complex I and activation of AMP-kinase” (BMC Biology, 2016)
